Read-outs that look alike come from different tables or passages of the source.
Experiments:
[1] = system: Ramos B-cell line stimulated with IL-4; assay: Assay for Ramos B-Cell Line Stimulated with IL-4 (CD23 upregulation, FACS); assay type: cell-based, human; conditions: IL-4 50 units/mL, 20-24 hours, anti-CD23-PE staining, FACS, read-out: Example 2 (IC50, Ramos B-cell line stimulated with IL-4)
From the text: One means of assaying for such inhibition is detection of the effect of the 2,4-pyrimidinediamine compounds on the upregulation of downstream gene products. In the Ramos/IL4 assay, B-cells are stimulated with the cytokine Interleukin-4 (IL-4) leading to the activation of the JAK/Stat pathway through phosphorylation of the JAK family kinases, JAK1 and JAK3, which in turn phosphorylate and activate the transcription factor Stat-6. […] To study the effect of inhibitors (e.g., the 2,4-substituted pyrimindinediamine compounds described herein) on the JAK1 and JAK3 kinases, human Ramos B cells are stimulated with human IL-4. Twenty to 24 hours post stimulation, cells are stained for upregulation of CD23 and analyzed using flow cytometry (FACS). […] An exemplary assay of this type is described in greater detail in Example 2.
B-cells stimulated with cytokine Interleukin-4 (IL-4) activate the JAK/Stat pathway through phosphorylation of the JAK family kinases, JAK-1 and JAK-3, which in turn phosphorylate and activate the transcription factor Stat-6. […] To study the effect of inhibitors on the JAK family kinases, human Ramos B cells are stimulated with human IL-4.
The Ramos B-cell line was acquired from ATCC (ATCC Catalog No. CRL-1596). The cells were cultured in RPMI 1640 (Cellgro, MediaTech, Inc., Herndon, Va., Cat No. 10-040-CM) with 10% fetal bovine serum (FBS), heat inactivated (JRH Biosciences, Inc, Lenexa, Kans., Cat No. 12106-500M) according to ATCC propagation protocol. Cells were maintained at a density of 3.5×10^5. The day before the experiment, Ramos B-cells were diluted to 3.5×10^5 cells/mL to ensure that they were in a logarithmic growth phase.
Cells were spun down and suspended in RPMI with 5% serum. 5×10^4 cells were used per point in a 96-well tissue culture plate. Cells were pre-incubated with compound or DMSO (Sigma-Aldrich, St. Louis, Mo., Cat No. D2650) vehicle control for 1 hour in a 37° C. incubator.
Cells were then stimulated with IL-4 (Peprotech Inc., Rocky Hill, N.J., Cat No. 200-04) for a final concentration of 50 units/mL for 20-24 hours. Cells were then spun down and stained with anti-CD23-PE (BD Pharmingen, San Diego, Calif., Cat No. 555711) and analyzed by FACS. Detection was performed using a BD LSR I System Flow Cytometer, purchased from Becton Dickinson Biosciences of San Jose, Calif.

Primary human T-cells = assay: Primary Human T-Cell Proliferation Assay Stimulated with IL-2 (CellTiter-Glo); assay type: cell-based; conditions: IL-2, 72 hours, ATP quantitation (CellTiter-Glo), read-out: Example 3 (IC50, primary human T-cell proliferation stimulated with IL-2)
From the text: The activity of the active compounds of the invention may further be characterized by assaying the effect of the 2,4-pyrimidinediamine compounds described herein on the proliferative response of primary human T-cells. In this assay, primary human T-cells derived from peripheral blood and pre-activated through stimulation of the T-cell receptor and CD28, proliferate in culture in response to the cytokine Interleukin-2 (IL-2). This proliferative response is dependent on the activation of JAK1 and JAK3 tyrosine kinases, which phosphorylate and activate the transcription factor Stat-5. The primary human T-cells are incubated with the 2,4-pyrimidinediamine compounds in the presence of IL-2 for 72 hours and at the assay endpoint intracellular ATP concentrations are measured to assess cell viability. A reduction in cell proliferation compared to control conditions is indicative of inhibition of the JAK kinase pathway. An exemplary assay of this type is described in greater detail in Example 3.
Primary human T-cells derived from peripheral blood and pre-activated through stimulation of the T-cell receptor and CD28, proliferate in vitro in response to the cytokine Interleukin-2 (IL-2). This proliferative response is dependent on the activation of JAK-1 and JAK-3 tyrosine kinases, which phosphorylate and activate the transcription factor Stat-5.
Human primary T cells were prepared as follows. Whole blood was obtained from a healthy volunteer, mixed 1:1 with PBS, layered on to Ficoll Hypaque (Amersham Pharmacia Biotech, Piscataway, N.J., Catalog #17-1440-03) in 2:1 blood/PBS:ficoll ratio and centrifuged for 30 min at 4° C. at 1750 rpm. The lymphocytes at the serum: ficoll interface were recovered and washed twice with 5 volumes of PBS. The cells were resuspended in Yssel's medium (Gemini Bio-products, Woodland, Calif., Catalog #400-103) containing 40 U/mL recombinant IL2 (R and D Systems, Minneapolis, Minn., Catalog #202-IL (20 μg)) and seeded into a flask pre-coated with 1 μg/mL anti-CD3 (BD Pharmingen, San Diego, Calif., Catalog #555336) and […] (Immunotech, Beckman Coulter of Brea Calif., Catalog #IM1376). The primary T-cells were stimulated for 3-4 days, then transferred to a fresh flask and maintained in RPMI with 10% FBS and 40 U/mL IL-2.
Primary T-cells were washed twice with PBS to remove the IL-2 and resuspended in Yssel's medium at 2×10^6 cells/mL. 50 μL of cell suspension containing 80 U/mL IL-2 was added to each well of a flat bottom 96 well black plate. For the unstimulated control, IL-2 was omitted from the last column on the plate. Compounds were serially diluted in dimethyl sulfoxide (DMSO, 99.7% pure, cell culture tested, Sigma-Aldrich, St. Louis, Mo., Catalog No. D2650) from 5 mM in 3-fold dilutions, and then diluted 1:250 in Yssel's medium. 50 μL of 2× compound was added per well in duplicate and the cells were allowed to proliferate for 72 hours at 37° C.
Proliferation was measured using CellTiter-Glo® Luminescent Cell Viability Assay (Promega), which determines the number of viable cells in culture based on quantitation of the ATP present, as an indicator of metabolically active cells. The substrate was thawed and allowed to come to room temperature. After mixing the Cell Titer-Glo reagent and diluent together, 100 μL was added to each well. The plates were mixed on an orbital shaker for two minutes to induce lysis and incubated at room temperature for an additional ten minutes to allow the signal to equilibrate. Detection was performed using a Wallac Victor2 1420 multilabel counter purchased from Perkin Elmer, Shelton, Conn.

IC50 ([1]; Homo sapiens, Ramos) | Molecule | IC50 [1] | IC50 (Primary human T-cells; Homo sapiens, T-cell, 72 h) | IC50 (Primary human T-cells)
– | Cn1nccc1NC(=O)Cc1cccc(Nc2nc(Nc3cccc(CS(N)(=O)=O)c3)ncc2F)c1 [Compound I-20, N2-[3-(Aminosulfonylmethylene)phenyl]-5-fluoro-N4-[(1-methylpyrazolyl-5-aminocarbonylmethylene)phenyl]-5-fluoro-2,4-pyrimidinediamine] | 1140 nM | – | –
214 nM | C#CCn1ccc2cc(Nc3nc(Nc4cccc(CS(N)(=O)=O)c4)ncc3F)ccc21 [IV-3, N2-(3-Aminosulfonylmethylphenyl)-5-fluoro-N4-[1-(propyn-3-yl)indol-5-yl]-2,4-pyrimidinediamine] | – | 1980 nM | –
354 nM | C#CCOC(=O)NCc1ccc(Nc2nc(Nc3cccc(CS(N)(=O)=O)c3)ncc2F)cc1 [Compound I-14, N2-(3-Aminosulfonylmethylphenyl)-5-fluoro-N4-{4-[(prop-2-ynyloxy)carbonylaminomethyl]phenyl}-2,4-pyrimidinediamine] | – | – | –
14800 nM | NS(=O)(=O)c1cccc(Nc2ncc(F)c(Nc3cc4c(cc3F)CS(=O)(=O)N4)n2)c1 [Compound V-2, N2-(3-aminosulfonyl)phenyl-5-fluoro-N4-(2,2-dioxo-5-fluoro-1,3-dihydrobenzo[c]isothiazol-6-yl)-2,4-pyrimidinediamine] | – | 24200 nM | –
– | N2-(3-Aminosulfonylmethylenephenyl)-5-fluoro-N4-[2-(2-N-morpholinoethylaminoacrbonyl)benzofuran-5-yl]-2,4-pyrimidinediamine [IV-5] | 3040 nM | – | –
93.1 nM | C#CCOc1ccc(Nc2nc(Nc3cccc(CS(N)(=O)=O)c3)ncc2F)cc1 [Compound I-3, N2-(3-Aminosulfonylmethylphenyl)-5-fluoro-N4-[4-(prop-2-ynyloxy)phenyl]-2,4-pyrimidinediamine] | – | 782 nM | –
12900 nM | Cc1ccc(Nc2ncc(F)c(Nc3cc4c(cc3F)CS(=O)(=O)N4)n2)cc1S(N)(=O)=O [Compound V-3, N2-(3-aminosulfonyl-4-methyl)phenyl-5-fluoro-N4-(2,2-dioxo-5-fluoro-1,3-dihydrobenzo[c]isothiazol-6-yl)-2,4-pyrimidinediamine] | – | – | –
– | CCS(=O)(=O)NCc1cccc(Nc2nc(Nc3ccc(CS(=O)(=O)NC)cc3)ncc2F)c1 [Compound I-12, N4-(3-ethylsulfonylaminomethyl)phenyl-5-fluoro-N2-(4-methylaminosulfonylmethyl)phenyl-2,4-pyrimidinediamine] | 314 nM | – | 1380 nM
– | CC1(C)Oc2ccc(Nc3nc(Nc4ccc5c(c4)CN(S(N)(=O)=O)CC5)ncc3F)nc2NC1=O [III-3, N2-(2-Aminosulfonyl-1,2,3,4-tetrahydroisoquinolin-7-yl)-N4-(2,2-dimethyl-3-oxo-4H-5-pyrid[1,4]oxazin-6-yl)-5-fluoro-2,4-pyrimidinediamine] | 72.9 nM | – | 269 nM
– | CCCN(Cc1ccc(Nc2nc(Nc3ccc(CS(=O)(=O)NC)cc3)ncc2F)cc1)S(=O)(=O)CC [Compound I-9, N4-[4-(N-ethylsulfonyl-N-propyl)aminomethyl]phenyl-5-fluoro-N2-(4-methylaminosulfonylmethyl)phenyl-2,4-pyrimidinediamine] | 224 nM | – | 1380 nM
794 nM | CC1(C)Oc2ccc(Nc3nc(Nc4ccc5c(c4)NS(=O)(=O)CO5)ncc3F)nc2NC1=O [Compound V-4, N4-[2,2-dimethyl-3-oxo-4H-pyrid[1,4]oxazin-7-yl]-N2-[3,3-dioxo-1H-benzo[e][1,3,4]oxathiazin-7-yl]-5-fluoro-2,4-pyrimidinediamine] | – | 1720 nM | –
12400 nM | NS(=O)(=O)c1ccc(Nc2ncc(F)c(Nc3cc4c(cc3F)CS(=O)(=O)N4)n2)cc1 [Compound V-1, N2-(4-aminosulfonyl)phenyl-5-fluoro-N4-(2,2-dioxo-5-fluoro-1,3-dihydrobenzo[c]isothiazol-6-yl)-2,4-pyrimidinediamine] | – | – | –
312 nM | Cc1cnc(Nc2cccc(S(N)(=O)=O)c2)nc1Nc1ccc2c(c1)C(NS(C)(=O)=O)CC2 (racemic) [VI-1, (+/−)-N2-(3-Aminosulfonylphenyl)-5-methyl-N4-[1-(methylsulfonyl)aminoindan-6-yl]-2,4-pyrimidinediamine] | – | – | –
– | CCS(=O)(=O)NCCc1ccc(Nc2nc(Nc3ccc(CS(=O)(=O)NC)cc3)ncc2F)cc1 [Compound I-15, N4-[4-(2-ethylsulfonylamino)ethyl]phenyl-5-fluoro-N2-(4-methylaminosulfonylmethyl)phenyl-2,4-pyrimidinediamine] | 378 nM | – | –
– | Cc1cnc(Nc2ccc(CNS(=O)(=O)c3cccnc3)cc2)nc1Nc1ccc(CNS(=O)(=O)c2cccnc2)cc1 [II-3, N2,N4-bis[4-(pyrid-3-yl)sulfonylaminomethyl]phenyl-5-methyl-2,4-pyrimidinediamine] | 322 nM | – | –
391 nM | Cc1cnc(Nc2cccc(CNS(=O)(=O)C3CC3)c2)nc1Nc1ccc2c(n1)CCC(=O)O2 [Compound V-5] | – | – | –
2550 nM | CN1CCC(NS(=O)(=O)C=C2C=CC=C(Nc3nc(NC4=CC=CC(=CS(N)(=O)=O)C4)ncc3F)C2)CC1 [Compound I-21, N2-[3-(Aminosulfonylmethylene)phenyl]-5-fluoro-N4-[3-(1-methylpiperidin-4-ylaminosulfonylmethylene)phenyl]-2,4-pyrimidinediamine] | – | – | –
– | O=S(=O)(NCc1ccc(Nc2ncc(C(F)(F)F)c(Nc3ccc(CNS(=O)(=O)C4CC4)cc3)n2)cc1)C1CC1 [II-4, N2,N4-bis(4-cyclopropylsulfonylaminomethyl)phenyl-5-trifluoromethyl-2,4-pyrimidinediamine] | 136 nM | – | 423 nM

From patent US8729087B2, “Compositions and methods for inhibition of the JAK pathway” (Rigel Pharmaceuticals, Inc., priority 2006, dated 2014)
